Data as given in patent US20260250289A1, “BICYCLIC HETEROCYCLES AND THEIR USE AS WRN INHIBITORS” (Novartis AG, priority 2022, published 2026).

Experiments:
[1] = test system: DLD1-WRN-KO cells; assay: Proliferation assay DLD1-WRN-KO (CellTiterGlo, off-target effects); assay type: cell-based; details: 96 hours, geometric mean of at least 2
Description: The WRN-knockdown insensitive colon carcinoma cell line DLD-1 (RRID: CVCL_0248) was obtained from the Korean Cell Line Bank (KCLB), and used to generate a derivative in which the endogenous WRN gene copies were knocked out by CRISPR-mediated editing using standard CRISPR methods. The resulting cell line, DLD1-WRN-KO, was used to assess potential off-target compound effects. […]
Three replicate plates were prepared for each compound treatment condition. In addition, one plate (termed “day 0”) was prepared to quantify the number of viable cells at the time of compound addition. Following overnight incubation at 37° C. in a humidified 5% CO2 atmosphere, eight 3-fold serial dilutions of a given compound stock (obtained at a concentration of 10 mM in DMSO and stored at 4° C.) were dispensed directly into each of the triplicate assay plates using a HP 300D non-contact Digital Dispenser (TECAN). The final concentration of DMSO was normalized to 0.1% in all wells. 96 hours after compound addition, cellular ATP levels as a surrogate for cell viability was assessed following addition of 50 microliters CellTiterGlo (Promega Cat #G7573) reagent and luminescence quantification on a MPLEX multi-mode plate-reader (TECAN) following a 10 minute incubation at room temperature. The number of viable cells in the “day 0” plate were quantified identically on the day of compound addition.
For data analysis, the assay background signal that was determined in wells containing medium, but no cells, was subtracted from all other data points prior to further calculations. The extent of growth inhibition and potential cell kill was assessed by comparing the ATP levels (measured using CellTiterGlo, Promega) in compound-treated cells with those present at the time of compound addition. […] 100%, 0% and −100% signify absence of growth inhibition, growth stasis, and complete cell kill, respectively. Compound concentrations leading to half-maximal growth inhibition (GI50) and residual cell viability at the highest tested compound concentration (Data (cmax), expressed in percent) were routinely calculated. Data analysis can also be carried out using commercially available software designed to derive IC50 values using 4-parameter fits (e.g. GraphPad Prism, XL fit). The reported GI50 values are the geometrical means of at least 2 independent replicates.

[2] = test system: SW48 cells; assay: Proliferation assay SW48 (CellTiterGlo); assay type: cell-based; details: Homo sapiens, SW48, 96 h, SW48 colon carcinoma cells, 96 hours, CellTiterGlo; geometric mean of at least 2; read-out: Proliferation Assay SW48 GI50
Description: The colon carcinoma cell lines SW48 (RRID: CVCL_1724), HCT 116 (RRID: CVCL_0291) and SNU-407 (RRID: CVCL_5058) were obtained from ATCC. The WRN-knockdown insensitive colon carcinoma cell line DLD-1 (RRID: CVCL_0248) was obtained from the Korean Cell Line Bank (KCLB), and used to generate a derivative in which the endogenous WRN gene copies were knocked out by CRISPR-mediated editing using standard CRISPR methods. The resulting cell line, DLD1-WRN-KO, was used to assess potential off-target compound effects.
SW48, SNU-407 and DLD1-WRN-KO cells were cultured in growth medium composed of RPMI-1640 (Amimed Cat #1-41F22-1), 2 mM L-Glutamine (Amimed Cat #5-10K50), 10 mM HEPES (Gibco Cat #15630-056), 1 mM sodium pyruvate (Amimed Cat #5-60F00-H), 1× Penicillin-Streptomycin (Amimed Cat #4-01F00-H) and 10% fetal calf serum (Amimed Cat #2-01F30-G, Lot #LB11566P). HCT 116 cells were cultured in growth medium composed of McCoys 5A (Amimed catalog #1-18F01-1), 2 mM L-Glutamine (Amimed Cat #5-10K50), 1× Penicillin-Streptomycin (Amimed Cat #4-01F00-H) and 10% fetal calf serum (Amimed Cat #2-01F30-G, Lot #LB11566P). All cells were maintained at 37° C. in a humidified 5% CO2 incubator.
Following filtration through a Steriflip-NY 20 μm filter (Millipore Cat #SCNY00020), trypsinized cells were seeded in 100 microliters growth medium at 2,000 (SW48) or 1,500 (SNU-407, DLD1-WRN-KO, HCT 116) cells/well into white, clear-bottom 96-well plates (Costar Cat #3903). Three replicate plates were prepared for each compound treatment condition. In addition, one plate (termed “day 0”) was prepared to quantify the number of viable cells at the time of compound addition. Following overnight incubation at 37° C. in a humidified 5% CO2 atmosphere, eight 3-fold serial dilutions of a given compound stock (obtained at a concentration of 10 mM in DMSO and stored at 4° C.) were dispensed directly into each of the triplicate assay plates using a HP 300D non-contact Digital Dispenser (TECAN). The final concentration of DMSO was normalized to 0.1% in all wells. 96 hours after compound addition, cellular ATP levels as a surrogate for cell viability was assessed following addition of 50 microliters CellTiterGlo (Promega Cat #G7573) reagent and luminescence quantification on a MPLEX multi-mode plate-reader (TECAN) following a 10 minute incubation at room temperature. The number of viable cells in the “day 0” plate were quantified identically on the day of compound addition.
For data analysis, the assay background signal that was determined in wells containing medium, but no cells, was subtracted from all other data points prior to further calculations. The extent of growth inhibition and potential cell kill was assessed by comparing the ATP levels (measured using CellTiterGlo, Promega) in compound-treated cells with those present at the time of compound addition. To this end, the following conditional concept was programmatically applied in HELIOS, an in-house software applying a multi-step decision tree to arrive at optimal concentration response curve fits (Gubler et al, SLAS DOI: 10.1177/2472555217752140) to calculate % growth (% G) for each compound-treated well: % G=(T−V0)/V0))*100 when T<V0, and % G=(T−V0)/(V−V0)))*100 when T≥V0, where V0 is the viability level at time of compound addition, while V and T represent vehicle-control and compound-treated viability levels, respectively, at the end of the compound incubation. 100%, 0% and −100% signify absence of growth inhibition, growth stasis, and complete cell kill, respectively. Compound concentrations leading to half-maximal growth inhibition (GI50) and residual cell viability at the highest tested compound concentration (Data (cmax), expressed in percent) were routinely calculated. Data analysis can also be carried out using commercially available software designed to derive IC50 values using 4-parameter fits (e.g. GraphPad Prism, XL fit). […]

[3] = biological target: T1, WRN helicase (aa N517-P1238) (Homo sapiens, UniProt Q14191); assay: WRN ATPase assay (DNA dependent ATP hydrolysis, ADP-Glo); assay type: biochemical; details: 3 hours pre-incubation, 300 micromolar ATP, FLAP26 DNA; geometric mean of at least 2
T1 construct: The core helicase motif of the WRN protein (aa N517-P1238) was produced for this assay; His (N); ZZ (N); 3C protease cleavage site (N); made in house; host or cells: Sf21 insect cells (baculovirus; virus and BIICs made in SF9)
Description: An ATPase assay was set up to measure the DNA dependent ATP hydrolysis activity of WRN helicase. This assay was used also to assess the inhibition properties of compounds of the invention on DNA dependent WRN ATPase activity.
The core helicase motif of the WRN protein (aa N517-P1238) was produced for this assay (protein production as described above). […] The ADP-Glo assay kit (Promega, Madison, WI) allowing the quantification of ADP produced in ATP hydrolysis reactions was used for setting up this assay.
Time course experiments were first performed in order to determine the best enzymatic assay conditions (including buffer conditions, reaction time and concentrations of protein, ATP and DNA substrates). A typical reaction consists of 10 nM WRN protein, 0.2 nM FLAP26, and 300 micromolar ATP in the following assay buffer: 30 mM Tris pH7.5, 2 mM MgCl2, 0.02% BSA, 50 mM NaCl, 0.1% pluronic F127 prepared in DNAse free water.
To evaluate the inhibition properties of compounds of the invention, serial dilutions were prepared in DMSO (10 half log dilutions from a 10 mM DMSO solution). […] The reaction was stopped with the addition of 5 microliters of the first ADP-Glo reagent and incubated for one hour to remove the excess amount of ATP. Afterwards, 10 microliters of ATP detection reagent was added and incubated for an additional hour before reading. Luminescence output was recorded using Tecan 1000 reader, with 5 minutes delay before reading. Each concentration of compound was tested in duplicates in the assay plate.
Following normalization of activity values for the wells to % inhibition (% inhibition=[(high control-sample)/(high control-low control)]×100), IC50 fitting was carried out from the duplicate determinations present on each plate according to [4]. Data analysis can also be carried out using commercially available software designed to derive IC50 values using 4-parameter fits (e.g. GraphPad Prism, XL fit). The reported IC50 values are the geometrical means of at least 2 independent replicates.

T1 sequence (Q14191 517-1238): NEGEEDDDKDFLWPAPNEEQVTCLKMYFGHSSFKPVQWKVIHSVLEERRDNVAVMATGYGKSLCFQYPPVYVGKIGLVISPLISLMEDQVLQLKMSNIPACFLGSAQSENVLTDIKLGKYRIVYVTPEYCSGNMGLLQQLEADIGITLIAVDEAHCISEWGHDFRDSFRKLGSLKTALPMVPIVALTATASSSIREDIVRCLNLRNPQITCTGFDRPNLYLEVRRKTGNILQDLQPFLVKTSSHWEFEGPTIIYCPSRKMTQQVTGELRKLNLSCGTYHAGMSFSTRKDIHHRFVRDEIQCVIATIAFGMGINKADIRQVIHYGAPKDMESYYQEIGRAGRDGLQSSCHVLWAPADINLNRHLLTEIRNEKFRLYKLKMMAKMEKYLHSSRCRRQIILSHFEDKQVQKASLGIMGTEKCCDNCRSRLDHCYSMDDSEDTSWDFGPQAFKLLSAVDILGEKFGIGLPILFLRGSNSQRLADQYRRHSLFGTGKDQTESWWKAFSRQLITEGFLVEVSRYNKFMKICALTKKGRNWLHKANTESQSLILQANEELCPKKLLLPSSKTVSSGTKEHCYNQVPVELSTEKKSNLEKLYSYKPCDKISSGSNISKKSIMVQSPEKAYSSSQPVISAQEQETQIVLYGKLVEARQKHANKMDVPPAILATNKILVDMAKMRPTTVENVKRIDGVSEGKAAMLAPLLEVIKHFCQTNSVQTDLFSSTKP

Compound | GI50 [1] | GI50 [2] | IC50 [3]
CCc1c(N2CCN(C(=O)c3nn(C)c(=O)[nH]3)CC2)c(=O)n2nc(C3=CCCC3)nc2n1CC(=O)Nc1ccc(C(F)(F)F)cc1 [Example 12, 2-(2-(cyclopent-1-en-1-yl)-5-ethyl-6-(4-(1-methyl-5-oxo-4,5-dihydro-1H-1,2,4-triazole-3-carbonyl)piperazin-1-yl)-7-oxo-[1,2,4]triazolo[1,5-a]pyrimidin-4(7H)-yl)-N-(4-(trifluoromethyl)phenyl)acetamide] | > 10000 nM | 800 nM | 10 nM
Cc1c(N2CCN(C(=O)c3c(F)ccc(F)c3O)CC2)c(=O)n2nc(C3=CCOCC3)nc2n1CC(=O)Nc1ccc(C(F)(F)F)cc1 [Example 13, 2-(6-(4-(3,6-difluoro-2-hydroxybenzoyl)piperazin-1-yl)-2-(3,6-dihydro-2H-pyran-4-yl)-5-methyl-7-oxo-[1,2,4]triazolo[1,5-a]pyrimidin-4(7H)-yl)-N-(4-(trifluoromethyl)phenyl)acetamide] | > 10000 nM | 300 nM | 30 nM
CCc1c(N2CCN(C(=O)c3c(O)ccc4cccnc34)CC2)c(=O)n2nc(C3=CCOCC3)nc2n1CC(=O)Nc1ccc(C(F)(F)F)cc1 [Example 14, 2-(2-(3,6-dihydro-2H-pyran-4-yl)-5-ethyl-6-(4-(7-hydroxyquinoline-8-carbonyl)piperazin-1-yl)-7-oxo-[1,2,4]triazolo[1,5-a]pyrimidin-4(7H)-yl)-N-(4-(trifluoromethyl)phenyl)acetamide] | > 10000 nM | 200 nM | 40 nM
Cc1c(N2CCN(C(=O)c3c(O)cccc3O)CC2)c(=O)n2nc(C3=CCOCC3)nc2n1CC(=O)Nc1ccc(C(F)(F)F)cc1 [Example 15, 2-(2-(3,6-dihydro-2H-pyran-4-yl)-6-(4-(2,6-dihydroxybenzoyl)piperazin-1-yl)-5-methyl-7-oxo-[1,2,4]triazolo[1,5-a]pyrimidin-4(7H)-yl)-N-(4-(trifluoromethyl)phenyl)acetamide] | > 10000 nM | 4000 nM | 50 nM
Cc1c(N2CCN(C(=O)c3ccc(F)c(F)c3O)CC2)c(=O)n2nc(C3=CCOCC3)nc2n1CC(=O)Nc1ccc(C(F)(F)F)cc1 [Example 16, 2-(6-(4-(3,4-difluoro-2-hydroxybenzoyl)piperazin-1-yl)-2-(3,6-dihydro-2H-pyran-4-yl)-5-methyl-7-oxo-[1,2,4]triazolo[1,5-a]pyrimidin-4(7H)-yl)-N-(4-(trifluoromethyl)phenyl)acetamide] | > 10000 nM | 500 nM | 50 nM

Further lines, results first:

GI50 [1] | GI50 [2] | IC50 [3] | Compound
> 10000 nM | 7000 nM | 2000 nM | CC(=O)N1CCN(c2c(C)n(CC(=O)Nc3ccc(C(F)(F)F)cc3)c3nc(N4CCC5CC54)nn3c2=O)CC1 (stereo not drawn) [Example 6, 2-(6-(4-acetylpiperazin-1-yl)-2-(2-azabicyclo[3.1.0]hexan-2-yl)-5-methyl-7-oxo-[1,2,4]triazolo[1,5-a]pyrimidin-4(7H)-yl)-N-(4-(trifluoromethyl)phenyl)acetamide]
> 10000 nM | 60 nM | 50 nM | CCc1c(N2CCN(C(=O)c3ncc4c(c3O)OCC4)CC2)c(=O)n2nc(C3=CCOCC3)nc2n1CC(=O)Nc1ccc(C(F)(F)F)cc1Cl [Example 11, N-(2-chloro-4-(trifluoromethyl)phenyl)-2-(2-(3,6-dihydro-2H-pyran-4-yl)-5-ethyl-6-(4-(7-hydroxy-2,3-dihydrofuro[3,2-c]pyridine-6-carbonyl)piperazin-1-yl)-7-oxo-[1,2,4]triazolo[1,5-a]pyrimidin-4(7H)-yl)acetamide]
8000 nM | 900 nM | 50 nM | Cc1c(N2CCN(C(=O)c3cc(F)ccc3O)CC2)c(=O)n2nc(C3=CCOCC3)nc2n1CC(=O)Nc1ccc(C(F)(F)F)cc1 [Example 17, 2-(2-(3,6-dihydro-2H-pyran-4-yl)-6-(4-(5-fluoro-2-hydroxybenzoyl)piperazin-1-yl)-5-methyl-7-oxo-[1,2,4]triazolo[1,5-a]pyrimidin-4(7H)-yl)-N-(4-(trifluoromethyl)phenyl)acetamide]
